Assay results reported in the NIST ThermoML archive (doi:10.1021/je700339f).
± gives the expanded uncertainty stated by the source.

Assay: xn = mol fraction of the nth substance listed
Conditions: 298 K, Liquid

Which mass density (10000 kPa, x2 = 0.4999) does the source give for `ClCCCl` [1,2-dichloroethane] + CC(=O)N(C)C here?
The mass density was 1084.8 ± 6.5 kg/m3.

And the mass density (10000 kPa, x2 = 0.6007)?
Its mass density is 1054.2 ± 6.3 kg/m3.

What about the mass density (10000 kPa, x2 = 0.7008) of the same compound?
The mass density was 1024.8 ± 6.1 kg/m3.

What about the mass density (10000 kPa, x2 = 0.7988) of the same compound?
Its mass density is 996.9 ± 5.9 kg/m3.

And the mass density (10000 kPa, x2 = 0.8997)?
Its mass density is 969.4 ± 5.8 kg/m3.

What about the mass density (10500 kPa, x2 = 0.0977) of the same compound?
Its mass density is 1219.4 ± 7.4 kg/m3.

What about the mass density (10500 kPa, x2 = 0.2003) of the same compound?
The mass density was 1183.3 ± 7.2 kg/m3.

What about the mass density (10500 kPa, x2 = 0.2988) of the same compound?
Its mass density is 1149.8 ± 7 kg/m3.

And the mass density (10500 kPa, x2 = 0.4022)?
Its mass density is 1116.1 ± 6.8 kg/m3.

And the mass density (10500 kPa, x2 = 0.4999)?
Its mass density is 1085.2 ± 6.5 kg/m3.

What about the mass density (10500 kPa, x2 = 0.6007) of the same compound?
The mass density was 1054.5 ± 6.3 kg/m3.

And the mass density (10500 kPa, x2 = 0.7008)?
Its mass density is 1025.2 ± 6.1 kg/m3.

And the mass density (10500 kPa, x2 = 0.7988)?
The mass density was 997.2 ± 5.9 kg/m3.

And the mass density (10500 kPa, x2 = 0.8997)?
Its mass density is 969.6 ± 5.8 kg/m3.

And the mass density (11000 kPa, x2 = 0.0977)?
The mass density was 1219.9 ± 7.4 kg/m3.

And the mass density (11000 kPa, x2 = 0.2003)?
The mass density was 1183.7 ± 7.2 kg/m3.

What about the mass density (11000 kPa, x2 = 0.2988) of the same compound?
The mass density was 1150.3 ± 7 kg/m3.

What about the mass density (11000 kPa, x2 = 0.4022) of the same compound?
Its mass density is 1116.5 ± 6.8 kg/m3.

What about the mass density (11000 kPa, x2 = 0.4999) of the same compound?
The mass density was 1085.6 ± 6.5 kg/m3.

And the mass density (11000 kPa, x2 = 0.6007)?
The mass density was 1054.8 ± 6.3 kg/m3.

And the mass density (11000 kPa, x2 = 0.7008)?
Its mass density is 1025.5 ± 6.1 kg/m3.

And the mass density (11000 kPa, x2 = 0.7988)?
The mass density was 997.6 ± 5.9 kg/m3.

What about the mass density (11000 kPa, x2 = 0.8997) of the same compound?
Its mass density is 970 ± 5.8 kg/m3.

And the mass density (11500 kPa, x2 = 0.0977)?
The mass density was 1220.3 ± 7.4 kg/m3.

What about the mass density (11500 kPa, x2 = 0.2003) of the same compound?
Its mass density is 1184.2 ± 7.2 kg/m3.

And the mass density (11500 kPa, x2 = 0.2988)?
The mass density was 1150.7 ± 7 kg/m3.

And the mass density (11500 kPa, x2 = 0.4022)?
The mass density was 1116.9 ± 6.8 kg/m3.

What about the mass density (11500 kPa, x2 = 0.4999) of the same compound?
The mass density was 1085.9 ± 6.5 kg/m3.

And the mass density (11500 kPa, x2 = 0.6007)?
Its mass density is 1055.2 ± 6.3 kg/m3.

What about the mass density (11500 kPa, x2 = 0.7008) of the same compound?
Its mass density is 1025.8 ± 6.1 kg/m3.

What about the mass density (11500 kPa, x2 = 0.7988) of the same compound?
Its mass density is 997.9 ± 5.9 kg/m3.

And the mass density (11500 kPa, x2 = 0.8997)?
The mass density was 970.3 ± 5.8 kg/m3.

And the mass density (11900 kPa, x2 = 0.4999)?
Its mass density is 1086.2 ± 6.5 kg/m3.

What about the mass density (12000 kPa, x2 = 0.0977) of the same compound?
The mass density was 1220.8 ± 7.4 kg/m3.

And the mass density (12000 kPa, x2 = 0.2003)?
Its mass density is 1184.6 ± 7.3 kg/m3.

And the mass density (12000 kPa, x2 = 0.2988)?
The mass density was 1151.1 ± 7 kg/m3.

And the mass density (12000 kPa, x2 = 0.4022)?
Its mass density is 1117.2 ± 6.8 kg/m3.

And the mass density (12000 kPa, x2 = 0.6007)?
The mass density was 1055.5 ± 6.3 kg/m3.

What about the mass density (12000 kPa, x2 = 0.7008) of the same compound?
The mass density was 1026.1 ± 6.1 kg/m3.

What about the mass density (12000 kPa, x2 = 0.7988) of the same compound?
The mass density was 998.2 ± 5.9 kg/m3.

And the mass density (12000 kPa, x2 = 0.8997)?
The mass density was 970.6 ± 5.8 kg/m3.

What about the mass density (12500 kPa, x2 = 0.0977) of the same compound?
Its mass density is 1221.2 ± 7.4 kg/m3.

And the mass density (12500 kPa, x2 = 0.2003)?
The mass density was 1185 ± 7.3 kg/m3.

What about the mass density (12500 kPa, x2 = 0.2988) of the same compound?
Its mass density is 1151.5 ± 7 kg/m3.

And the mass density (12500 kPa, x2 = 0.4022)?
Its mass density is 1117.6 ± 6.8 kg/m3.

What about the mass density (12500 kPa, x2 = 0.4999) of the same compound?
Its mass density is 1086.6 ± 6.6 kg/m3.

And the mass density (12500 kPa, x2 = 0.6007)?
Its mass density is 1055.8 ± 6.3 kg/m3.

What about the mass density (12500 kPa, x2 = 0.7008) of the same compound?
Its mass density is 1026.5 ± 6.1 kg/m3.

And the mass density (12500 kPa, x2 = 0.7988)?
The mass density was 998.5 ± 5.9 kg/m3.

And the mass density (12500 kPa, x2 = 0.8997)?
The mass density was 970.9 ± 5.8 kg/m3.

And the mass density (13000 kPa, x2 = 0.0977)?
The mass density was 1221.6 ± 7.4 kg/m3.

What about the mass density (13000 kPa, x2 = 0.2003) of the same compound?
The mass density was 1185.4 ± 7.3 kg/m3.

And the mass density (13000 kPa, x2 = 0.2988)?
Its mass density is 1151.9 ± 7 kg/m3.

And the mass density (13000 kPa, x2 = 0.4022)?
The mass density was 1118 ± 6.8 kg/m3.

And the mass density (13000 kPa, x2 = 0.4999)?
Its mass density is 1087 ± 6.6 kg/m3.

And the mass density (13000 kPa, x2 = 0.6007)?
Its mass density is 1056.2 ± 6.3 kg/m3.

And the mass density (13000 kPa, x2 = 0.7008)?
Its mass density is 1026.8 ± 6.1 kg/m3.

And the mass density (13000 kPa, x2 = 0.7988)?
The mass density was 998.8 ± 5.9 kg/m3.

What about the mass density (13000 kPa, x2 = 0.8997) of the same compound?
Its mass density is 971.2 ± 5.8 kg/m3.

What about the mass density (13500 kPa, x2 = 0.0977) of the same compound?
The mass density was 1222 ± 7.4 kg/m3.

And the mass density (13500 kPa, x2 = 0.2003)?
Its mass density is 1185.8 ± 7.3 kg/m3.

And the mass density (13500 kPa, x2 = 0.2988)?
The mass density was 1152.2 ± 7 kg/m3.

What about the mass density (13500 kPa, x2 = 0.4022) of the same compound?
The mass density was 1118.4 ± 6.8 kg/m3.

What about the mass density (13500 kPa, x2 = 0.4999) of the same compound?
The mass density was 1087.3 ± 6.6 kg/m3.

And the mass density (13500 kPa, x2 = 0.6007)?
Its mass density is 1056.5 ± 6.3 kg/m3.

And the mass density (13500 kPa, x2 = 0.7008)?
The mass density was 1027.1 ± 6.1 kg/m3.

And the mass density (13500 kPa, x2 = 0.7988)?
Its mass density is 999.2 ± 5.9 kg/m3.

What about the mass density (13500 kPa, x2 = 0.8997) of the same compound?
The mass density was 971.5 ± 5.9 kg/m3.

And the mass density (14000 kPa, x2 = 0.0977)?
Its mass density is 1222.4 ± 7.4 kg/m3.

What about the mass density (14000 kPa, x2 = 0.2003) of the same compound?
The mass density was 1186.3 ± 7.3 kg/m3.

What about the mass density (14000 kPa, x2 = 0.2988) of the same compound?
The mass density was 1152.6 ± 7 kg/m3.

What about the mass density (14000 kPa, x2 = 0.4022) of the same compound?
Its mass density is 1118.7 ± 6.8 kg/m3.

What about the mass density (14000 kPa, x2 = 0.4999) of the same compound?
The mass density was 1087.7 ± 6.6 kg/m3.

And the mass density (14000 kPa, x2 = 0.6007)?
Its mass density is 1056.8 ± 6.3 kg/m3.

What about the mass density (14000 kPa, x2 = 0.7008) of the same compound?
Its mass density is 1027.4 ± 6.1 kg/m3.

What about the mass density (14000 kPa, x2 = 0.7988) of the same compound?
Its mass density is 999.4 ± 6 kg/m3.

What about the mass density (14000 kPa, x2 = 0.8997) of the same compound?
Its mass density is 971.7 ± 5.8 kg/m3.

And the mass density (14500 kPa, x2 = 0.0977)?
The mass density was 1222.9 ± 7.4 kg/m3.

What about the mass density (14500 kPa, x2 = 0.2003) of the same compound?
The mass density was 1186.7 ± 7.3 kg/m3.

What about the mass density (14500 kPa, x2 = 0.2988) of the same compound?
The mass density was 1153 ± 7 kg/m3.

What about the mass density (14500 kPa, x2 = 0.4022) of the same compound?
Its mass density is 1119.1 ± 6.8 kg/m3.

And the mass density (14500 kPa, x2 = 0.4999)?
Its mass density is 1088 ± 6.6 kg/m3.

What about the mass density (14500 kPa, x2 = 0.6007) of the same compound?
The mass density was 1057.1 ± 6.3 kg/m3.

And the mass density (14500 kPa, x2 = 0.7008)?
The mass density was 1027.8 ± 6.1 kg/m3.

What about the mass density (14500 kPa, x2 = 0.7988) of the same compound?
Its mass density is 999.7 ± 6 kg/m3.

And the mass density (14500 kPa, x2 = 0.8997)?
The mass density was 972 ± 5.9 kg/m3.

And the mass density (14900 kPa, x2 = 0.0977)?
The mass density was 1223.2 ± 7.4 kg/m3.

And the mass density (15000 kPa, x2 = 0.2003)?
The mass density was 1187.1 ± 7.3 kg/m3.

What about the mass density (15000 kPa, x2 = 0.2988) of the same compound?
The mass density was 1153.4 ± 7 kg/m3.

What about the mass density (15000 kPa, x2 = 0.4022) of the same compound?
The mass density was 1119.4 ± 6.8 kg/m3.

What about the mass density (15000 kPa, x2 = 0.4999) of the same compound?
Its mass density is 1088.4 ± 6.6 kg/m3.

What about the mass density (15000 kPa, x2 = 0.6007) of the same compound?
Its mass density is 1057.5 ± 6.4 kg/m3.
